Test results as given in PMC9788182, “Natural Compounds as Non-Nucleoside Inhibitors of Zika Virus Polymerase through Integration of In Silico and In Vitro Approaches” (Pharmaceuticals, 2022).
Where two headings read alike, the source gives them in different places.

Experiments:
ZIKV = tested on: ZIKV; parameters: method as in PMID 30392049; settings: Vero cells; cited from earlier work
[1] = tested on: Japanese encephalitis virus (JEV); settings: cited from earlier work
DENV-2 = tested on: DENV-2; parameters: method as in PMID 34126315, PMID 24965553; settings: read-out: DENV2 EC50; cited from earlier work
ZIKV RdRp [2] = tested on: ZIKV RdRp; parameters: method as in PMID 28098253; settings: cited from earlier work
DENV2 RdRP = tested on: DENV2 RdRP; parameters: method as in earlier work; settings: ref 49 (13), ref 8 (14), ref 24 (15); cited from earlier work
DENV3 RdRP = tested on: DENV3 RdRP; parameters: method as in earlier work; settings: ref 49 (13), ref 8 (14), ref 24 (15); cited from earlier work
DENV4 RdRP = tested on: DENV4 RdRP; parameters: method as in earlier work; settings: ref 49 (13), ref 8 (14), ref 24 (15); cited from earlier work
DENV1 RdRP = tested on: DENV1 RdRP; parameters: method as in earlier work; settings: ref 49 (13), ref 8 (14), ref 24 (15); cited from earlier work
SARS-CoV-2 RdRp = tested on: SARS-CoV-2 RdRp; parameters: method as in PMID 35732785; settings: cited from earlier work
DENV RdRP = settings: ref 31 (10), ref 21 (11), ref 30 (12); cited from earlier work
DENV-2 virus = tested on: DENV-2 virus; parameters: method as in PMID 22201648; settings: Vero cells, cited from earlier work
ZIKV^BR = assay: Antiviral assay, Vero cells infected with ZIKV^BR, foci by immunofluorescence; assay type: cell-based, Zika virus; settings: for SI (selectivity index): SI = CC50/EC50, Vero cells; for EC50: Zika virus, read-out: EC50 ZIKV
Protocol: The anti-ZIKV activities of the pedalitin and quercetin were further investigated through the employment of Vero cells infected with ZIKV wild type (ZIKV^BR) (Figure 6). […] Vero cells were infected with ZIKV^BR and simultaneously treated with pedalitin or quercetin at concentrations ranging from 200 µM to 0.005 µM for 72 h when viral replication rates were assessed (Figure 6). Cell viability analysis was performed in parallel (Figure 6).
Vero cells were seeded at density of 5 × 10^3 cells per well into 96-well plates 24 h prior to the infection. ZIKV-WT^BR at a multiplicity of infection (MOI) of 0.1 and compound at concentrations ranging from 200 to 0.005 µM were simultaneously added to cells. 72 h post-infection (h.p.i.), cells were fixed with paraformaldehyde 4%, washed with PBS and blocking buffer (BB) containing: 0.1% Triton X-100 (Vetec Labs, PR, BR), 0.2% bovine albumin (BSA) and PBS for 30 min. Then, cells were incubated with primary rabbit polyclonal anti-NS3 antibody diluted in BB for 1 h. Alexa Fluor 488 conjugated anti-rabbit IgG was used as secondary antibody (Abcam, Cambridge, UK). Images were analyzed by EVO cell imaging systems fluorescence microscopy (Thermo Fisher Scientific, OH, USA) and foci of infection were counted. The antiviral activity was calculated according to the equation (T/C) × 100%, where T and C represent the mean of the treated group and mean of the […], respectively. […] 8. The values of CC50 and EC50 were used to calculate the selectivity index (SI = CC50/EC50).

ZIKV NS5 RdRp = ZIKV NS5 RdRp (Zika virus, UniProt Q32ZE1); assay: ZIKV NS5-RdRp activity assays (endpoint and concentration-response); assay type: biochemical; settings: for inhibition at 20 µM: endpoint assay at 20 µM, read-out: inhibitory activity against ZIKV RdRp
Protocol: Nine prioritized hits were submitted to endpoint assay at 20 µM to verify their inhibitory activity against ZIKV RdRp. […] Pedalitin and quercetin were the only ones with activity greater than 80%, with inhibitory activity of 97% and 99%, respectively, and consequently were selected for the concentration-response assays.
We then investigated ZIKV RdRp activity in the presence of pedalitin and quercetin.
ZIKV NS5-RdRp activity assays were performed as described by Fernandes and coworkers. The endpoint assays were performed at 20 μM, and the compounds that inhibited more than 80% of activity in this assay were submitted to a concentration-response test. The concentration-responses assays were performed as described in [94]. In all cases, the percentage inhibition values were calculated based on a control reaction, containing only DMSO in the same concentrations used for the tested compounds. The results were analyzed and plotted using the GraphPad Prism v. 8.0 program.

Cell viability, MTT = assay type: cell-based; settings: African green monkey, Vero cells
Protocol: Cell viability was measured by the MTT [3-(4,5-dimethylthiazol-2-yl)-2,5-diphenyl tetrazolium bromide] (Sigma–Aldrich) method. Vero cells were seeded in a 96-well plate at a density of 5 × 10^3 cells per well and incubated overnight at 37 °C in a humidified 5% CO2 incubator. A drug-containing medium at concentrations ranging from 200 to 0.005 µM was added to the cell culture. After 72 h at 37 °C, the media was removed and a solution containing MTT at the final concentration of 1 mg/mL was added to each well and incubated for 30 min at 37 °C in a humidified 5% CO2 incubator, after which media was replaced with 100 μL of DMSO to solubilize the formazan crystals. Absorbance was measured by the optical density (OD) of each well at 490 nm, using a spectrophotometer. Cell viability was calculated according to the equation (T/C) × 100%, where T and C represent the mean optical density of the treated group and vehicle control group, respectively. […] 8 [95].

ZIKV RdRp [3] = tested on: ZIKV RdRp; parameters: method as in PMID 31310806; settings: cited from earlier work

Chain of ZIKV NS5 RdRp (Q32ZE1 2822-3419): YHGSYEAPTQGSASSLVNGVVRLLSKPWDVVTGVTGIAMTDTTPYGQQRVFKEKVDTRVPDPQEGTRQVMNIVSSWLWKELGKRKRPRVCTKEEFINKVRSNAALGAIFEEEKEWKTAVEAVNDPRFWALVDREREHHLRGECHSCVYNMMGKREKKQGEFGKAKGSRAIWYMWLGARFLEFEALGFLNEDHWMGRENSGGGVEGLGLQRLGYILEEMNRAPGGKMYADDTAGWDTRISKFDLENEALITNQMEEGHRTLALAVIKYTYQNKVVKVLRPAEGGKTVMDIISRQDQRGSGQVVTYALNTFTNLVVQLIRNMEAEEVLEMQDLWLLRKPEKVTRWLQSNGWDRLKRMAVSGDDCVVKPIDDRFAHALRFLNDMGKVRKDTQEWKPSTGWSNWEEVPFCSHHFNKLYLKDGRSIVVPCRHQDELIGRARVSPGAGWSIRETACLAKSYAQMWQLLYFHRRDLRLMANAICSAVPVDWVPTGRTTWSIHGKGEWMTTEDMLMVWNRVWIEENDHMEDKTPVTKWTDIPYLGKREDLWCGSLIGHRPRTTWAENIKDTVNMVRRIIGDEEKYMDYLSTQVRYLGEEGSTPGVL

O=c1cc(-c2ccccc2)oc2cc(O)c(O)c(O)c12 [Compound 18, baicalein]
EC50 (ZIKV): 0.004 µM | JEV ED50 ([1]; Figure 4): 27 µM | EC50 [1]: 27 ± 4 µM | EC50 (DENV-2): 55.1 µM

CC(C)OC(=O)[C@H](C)N[P@](=O)(OC[C@H]1O[C@@H](n2ccc(=O)[nH]c2=O)[C@](C)(F)[C@@H]1O)Oc1ccccc1 [Sofosbuvir, sofosbuvir]
IC50 (ZIKV RdRp [2]): 380 ± 30 nM

COc1cccc(S(=O)(=O)NC(=O)c2cc(-c3ccc(C#CCO)s3)c(OC)cc2OC)c1 [Compound 14, 5-(5-(3-Hydroxyprop-1-yn-1-yl)thiophen-2-yl)-2,4-dimethoxy-N-((3-methoxyphenyl)sulfonyl)benzamide]
IC50 (DENV2 RdRP): 106 nM | IC50 (DENV3 RdRP): 48 nM | IC50 (DENV4 RdRP): 172 ± 97 nM | IC50 (DENV1 RdRP): 68 nM

COc1cc(C)c(C(=O)NS(=O)(=O)c2cccc3cccnc23)cc1-c1ccc(C#CCO)s1 [Compound 15, 5-(5-(3-Hydroxyprop-1-yn-1-yl)thiophen-2-yl)-4-methoxy-2-methyl-N-(quinolin-8-ylsulfonyl)benzamide]
IC50 (DENV2 RdRP): 38 nM | IC50 (DENV3 RdRP): 16 nM | IC50 (DENV4 RdRP): 23 ± 10 nM | IC50 (DENV1 RdRP): 13 nM

O=c1cc(-c2ccc(O)c(O)c2)oc2cc(O)cc(O)c12 [luteolin]
IC50 (SARS-CoV-2 RdRp): 4.6 µM

COc1cc(O)c2c(=O)c(O)c(-c3ccc(O)c(O)c3)oc2c1 [Compound 12, rhamnetin]
IC50 (DENV RdRP): 2200 ± 200 nM

O=c1c(O)c(-c2ccc(O)c(O)c2)oc2cc(O)cc(O)c12 [Compound 9, Quercetin]
IC50 (SARS-CoV-2 RdRp): 6.9 µM | EC50 (DENV-2 virus; administration after viral adsorption): 95.6 µM | reduction of DENV-2 replication (DENV-2 virus; concentration of 165.4 µM): 67% | SI (selectivity index) (ZIKV^BR): 2.03 | EC50 (ZIKV^BR; Vero cells, ZIKV^BR MOI 0.1, 72 h, 200 to 0.005 µM): 17.7 µM | IC50 (ZIKV NS5 RdRp; concentration-response, 80 µM to 0.156 µM, read-out: IC50 ZIKV RdRp): 500 ± 100 nM | inhibition at 20 µM (ZIKV NS5 RdRp): 99% | CC50 at 72 h (Cell viability, MTT): 36 µM

O=C(O)[C@H]1O[C@@H](Oc2cc3oc(-c4ccccc4)cc(=O)c3c(O)c2O)[C@H](O)[C@@H](O)[C@@H]1O [Compound 19, baicalin]
EC50 (ZIKV): 14 µM

C=CCCCCCCCCC(=O)O [Compound 17, undecylenic acid]
EC50 (ZIKV RdRp [3]): 7.43 µM

COc1cc2oc(-c3ccc(O)c(O)c3)cc(=O)c2c(O)c1O [Compound 8, Pedalitin]
SI (selectivity index) (ZIKV^BR): 4.34 | EC50 (ZIKV^BR; Vero, 72 h): 19.3 µM | IC50 (ZIKV NS5 RdRp): 4100 ± 300 nM | inhibition at 20 µM (ZIKV NS5 RdRp): 97% | CC50 at 72 h (Cell viability, MTT): 83.7 µM

O=C(Cc1ccccc1Nc1c(Cl)cccc1Cl)NC1(C(=O)O)Cc2ccccc2C1 [Compound 13, bis-chloro-diphenylamine, 2-aminoindan-2-carboxyl derivative]
IC50 (DENV2 RdRP): 16500 ± 1800 nM | IC50 (DENV3 RdRP): 12800 ± 1300 nM | IC50 (DENV4 RdRP): 6100 ± 1000 nM | IC50 (DENV1 RdRP): 6600 ± 1300 nM

O=C(O)CCCC(/C=C/c1ccccc1)c1c(O)c(C(CCCC(=O)O)CCc2ccccc2)c(O)c2c(=O)cc(-c3ccccc3)oc12 (stereo not drawn) [Compound 11, chartaceone D]
IC50 (DENV RdRP): 1800 ± 1200 nM

podocarpusflavone A [Compound 10]
IC50 (DENV RdRP): 160 ± 20 nM
